Here are results for five compounds from patent US20080089859A1, “ADMINISTRATION OF SLEEP RESTORATIVE AGENTS” (priority 2001, published 2008).

Experiment [1] deals with rheumatoid arthritis (Ra) and Psoriatic arthritis (PsA) patients. In words: Study of Example 1 continued to 18 months (Example 2). The experiment is classed as in vivo, human. The conditions noted are these: 12 month to 18 month time point; on Etanercept. An excerpt:
The study of Example 1 was continued to 18 months. […] Fibromyalgia was a surrogate for a lack of deep (e.g., stage IV) restorative sleep.
JC refers to the number of swollen tender joints.

Experiment [2] has as its system patients with Behcet's Syndrome. In words: Treatment of patients with Behcet's Syndrome. The experiment is classed as in vivo, human. The conditions noted are these: for Discontinuation of prednisone: single patients, lorazepam 2 mg qhs (patient 1), pramipexole added to lorazepam (patient 2), clonazepam 2 mg qhs (patient 3). The method, then: Three patients with Behcet's Syndrome were treated according to the present invention. For one patient, prednisone administration was supplemented with lorazepam at 2 mg qhs. […] For a second patient, lorazepam at 2 mg qhs was co-admnistered with Dapsone and prednisone.

Experiment [3] concerns patients with Palindromic Rheumatism. In words: Treatment of patients with Palindromic Rheumatism. Type of experiment: in vivo, human. The conditions noted are these: five patients; clonazepam 2 mg, pramipexole 1-6 mg and/or lorazepam 2 mg qhs. The method, then: Five patient with Palindromic Rheumatism were treated according to the present invention. After adding clonazepam 2 mg, pramipexole 1-6 mg and/or lorazepam 2 mg qhs to their treatment, the patients reported that episodic severe pain decreased dramatically, by 90%.

The subject of experiment [4] is patients having rheumatoid arthritis. In words: Rheumatoid arthritis patients on Leflunamide given sleep restorative agents. The experiment is classed as in vivo, human. The conditions noted are these: lorazepam, clonazepam and/or pramipexole.
Experiment [5] has as its system patients with Sjogren's Syndrome. Nature of the experiment: Treatment of patients with dry eyes and mouth from Sjogren's Syndrome. Type of experiment: in vivo, human. The conditions noted are these: Lorazepam 1-2 mg po qhs, Pramipexole later 0.5-4.0 mg qhs. The method, then:
Three patients with dry eyes and mouth from Sjogren's Syndrome, were treated with lorazepam or pramipexole. […] Lorazepam was administered at 1-2 mg po qhs. Pramipexole was later administered at 0.5-4.0 mg qhs.

For experiment [6], the system named is patients with Ankylosing Spondylitis. In words: Treatment of patients with Ankylosing Spondylitis. Type of experiment: in vivo, human. The conditions noted are these: six patients on Methotrexate, steroids 2-10 mg qd and Etanercept; lorazepam 1-2 mg qhs or pramipexole 0.5-3.0 mg qhs. The method, then:
Six patients with Ankylosing Spondylitis were treated according to the present invention. […] The patients were administered lorazepam 1-2 mg qhs or pramipexole 0.5-3.0 mg qhs.

Experiment [7] deals with patients with Systemic Lupus Erythematosis. Nature of the experiment: Treatment of patients with Systemic Lupus Erythematosis. The conditions noted are these: patient steroid-dependent at 20 mg qd on leflunamide; lorazepam 2 mg qhs added. The experiment is classed as in vivo, human. The method, then:
Patients with Systemic Lupus Erythematosis were treated according to the present invention.
The dose range of pramipexole ranged from 2-6 mg qhs.

For experiment [8], the system named is patient with chronic gout. In words: Treatment of a patient with chronic gout and severe synovitis. The experiment is classed as in vivo, human. Conditions: for Prednisone dose reached: colchicine, hydroxychloroquine and Etanercept added together, before sleep agents. The method, then: Adding colchicine, hydroxychloroquine and Etanercept only allowed them to decrease prednisone to 15 mg qd.

The next experiment has as its system patient with pseudogout. Nature of the experiment: Treatment of a patient with pseudogout. Type of experiment: in vivo, human. The conditions noted are these: one patient on colchicine; lorazepam 2 mg qhs added for sleep.
The test system of experiment [9] is patients with Multiple Sclerosis (MS). The procedure:
Eight patients with Multiple Sclerosis (MS) were treated according to the present invention.

The test system of experiment [10] is patients having rheumatoid arthritis. In words: Rheumatoid arthritis patients on Infliximab given sleep restorative agents. The experiment is classed as in vivo, human. The conditions noted are these: lorazepam 1-2 mg qhs or pramipexole.

`O=C1CN=C(c2ccccc2Cl)c2cc([N+](=O)[O-])ccc2N1` [Clonazepam]: in experiment [1], the “Response of improved patients after adding the agent to their treatment” value is reported as “did much better from the 12 month time point to the 18 month time point”. The “Symptoms observed in the patient” value in experiment [2] (second patient (pramipexole added to lorazepam), third patient (clonazepam 2 mg qhs)) is “less fatigue and no further mouth ulcers were observed”. Besides, the Discontinuation of prednisone entry in [2] is listed as “able to discontinue prednisone 10 mg qd”. Moreover, in [3], the “Decrease of episodic severe pain” value was determined as 90%; the Other medications stopped entry was “off narcotics, steroids, Etanercept, Infliximab, leflunamide, Azothioprine, sulfasalazine, hydroxychloroquine and colchicine”. Besides, the Leflunamide efficacy entry in experiment [4] is “increased Leflunamide efficacy”.

As to `O=C1Nc2ccc(Cl)cc2C(c2ccccc2Cl)=NC1O` (stereo not shown) [Lorazepam], the “Response of improved patients after adding the agent to their treatment” value in [1] is reported as “did much better from the 12 month time point to the 18 month time point”. The “Resolution of dryness (eyes and mouth)” value in experiment [5] (3 patients on Hydroxychloroquine 200 mg po bid, nearly complete resolution in third patient) is recorded as “Complete resolution of the dryness in 2 of 3 patients”. Further, the Hydroxychloroquine sparing result in [5] (3 patients) is “One daily dose of Hydroxychloroquine was discontinued and benefit maintained”. The “Discontinuation of Dapsone” value in experiment [2] (second patient, lorazepam 2 mg qhs with Dapsone and prednisone) is “Dapsone could be discontinued without further seizures”. In addition, in [2], the Discontinuation of prednisone entry is reported as “able to d/c prednisone in two months”. Also, the “Discontinuation of Methotrexate and steroids” value in [6] was “All six patients were able to discontinue Methotrexate and steroids”. In [7], this compound displayed a Prednisone dose reached of 15 mg qhs. In experiment [3], the “Decrease of episodic severe pain” value is 90%; the Other medications stopped result is “off narcotics, steroids, Etanercept, Infliximab, leflunamide, Azothioprine, sulfasalazine, hydroxychloroquine and colchicine”. The “Discontinuation of other medications” value in experiment [8] (one patient, pramipexole and lorazepam added together) is “allowed the patient to discontinue steroids, colchicine, hydroxychoroquine, and narcotics”. Moreover, the Flares result with patient with pseudogout was “no flares for three years”. Also, the Sleep and fibromyalgia entry in [9] (one patient flaring uncontrollably, Lorazepam 2 mg qhs) is “still exhibited poor sleep and fibromyalgia”. The MS activity result in experiment [9] (three patients, pramipexole and/or lorazepam added) was “MS was quiet for over three years”. Also, the Leflunamide efficacy entry in experiment [4] is on record as “increased Leflunamide efficacy”. Further, the Infliximab efficacy entry in [10] is given as “increased efficacy of Infliximab”.

As to `COc1cc2c(c(OC)c1OC)-c1ccc(OC)c(=O)cc1[C@@H](NC(C)=O)CC2` [colchicine], in experiment [8] (one patient), the Prednisone dose reached is 15 mg qd. Moreover, in the experiment with patient with pseudogout, the Flares entry is on record as “flare ups were previously uncontrolled”.

Take `CCN(CCO)CCCC(C)Nc1ccnc2cc(Cl)ccc12` (stereo not shown) [hydroxychloroquine]: in experiment [8] (one patient), the Prednisone dose reached turned out to be 15 mg qd.

For `C[C@]12C=CC(=O)C=C1CC[C@@H]1[C@@H]2C(=O)C[C@@]2(C)[C@H]1CC[C@]2(O)C(=O)CO` [prednisone], the “Control of severe synovitis” value in experiment [8] (prednisone 10-40 mg qd for two months) is given as “uncontrolled”.
